Earlier results in PMC4014123 (Acta Crystallographica Section D: Biological Crystallography, 2014).

Tested on: I223R/H275Y dual mutation of neuraminidase from influenza A H1N1
Details: I223R/H275Y dual mutant vs wild type; ref van der Vries et al., 2012; cited from earlier work

SMILES: CCOC(=O)C1=C[C@@H](OC(CC)CC)[C@H](NC(C)=O)[C@@H](N)C1 [oseltamivir]
- resistance towards oseltamivir relative to wild type: approximately 7500 times
